Test [1] deals with T1, mouse Δ1–24-L-PGDS (lipocalin type prostaglandin D synthase) (Mus musculus, UniProt O09114).
T1 sequence (O09114 25-189): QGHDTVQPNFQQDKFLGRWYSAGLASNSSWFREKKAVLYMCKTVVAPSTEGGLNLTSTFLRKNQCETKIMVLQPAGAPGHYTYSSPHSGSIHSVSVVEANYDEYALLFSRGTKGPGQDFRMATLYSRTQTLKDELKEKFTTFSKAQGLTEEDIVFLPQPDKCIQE
Kind of test: surface plasmon resonance. Type of test: binding. In general terms: Surface plasmon resonance follows binding to a sensor surface in real time, without labels.

The target in test [2] is T2, mouse Δ1–24-L-PGDS (lipocalin type prostaglandin D synthase) (Mus musculus, UniProt O09114, H116A).
T2 sequence (O09114 25-189 H116A): T1 sequence (O09114 25-189) with H92A
The test can be described thus: biochemical.

The target in test [3] is T3, mouse Δ1–24-L-PGDS (lipocalin type prostaglandin D synthase) (Mus musculus, UniProt O09114, S45A).
T3 sequence (O09114 25-189 S45A): T1 sequence (O09114 25-189) with S21A
The test can be described thus: surface plasmon resonance. Type of test: binding.

Another test addresses T4, Δ^1–24-C65A + P110A (Mus musculus, UniProt O09114, C65A/P110A).
T4 sequence (O09114 1-189 C65A/P110A): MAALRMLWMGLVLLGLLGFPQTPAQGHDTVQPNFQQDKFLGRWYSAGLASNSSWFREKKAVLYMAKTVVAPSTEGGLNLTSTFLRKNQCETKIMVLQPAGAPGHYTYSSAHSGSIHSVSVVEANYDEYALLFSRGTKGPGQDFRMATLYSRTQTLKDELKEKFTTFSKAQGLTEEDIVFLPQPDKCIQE
The test can be described thus: biochemical.

The next test concerns the target T5, Δ^1–24-L-PGDS + P110A (Mus musculus, UniProt O09114, P110A).
T5 sequence (O09114 1-189 P110A): T4 sequence (O09114 1-189 C65A/P110A) with A65C
The test can be described thus: biochemical.

For test [4], the target named is T6, mouse Δ1–24-L-PGDS (lipocalin type prostaglandin D synthase) (Mus musculus, UniProt O09114, H111A).
T6 sequence (O09114 25-189 H111A): T1 sequence (O09114 25-189) with H87A
The test can be described thus: surface plasmon resonance. Type of test: binding.

The target of test [5] is T7, Δ^1–24-L-PGDS + S45A/S81A (Mus musculus, UniProt O09114, S45A/S81A).
T7 sequence (O09114 1-189 S45A/S81A): T4 sequence (O09114 1-189 C65A/P110A) with S45A, A65C, S81A, A110P
Kind of test: biochemical.

Test [6] deals with T2, mouse Δ1–24-L-PGDS (lipocalin type prostaglandin D synthase). Kind of test: surface plasmon resonance. The test is classed as binding.

Changes are numbered by the printed parent chain.

On to `CCCCC[C@H](O)/C=C/[C@H]1[C@@H]2CO[C@@H](C2)[C@@H]1C/C=C\CCCC(=O)O` [U-44069], for which the Kd (in general, the concentration at which binding is half-saturated) worked out at 17.5 ± 1.2 µM in test [1]; 27.3 ± 2.5 µM in test [2]; 15.2 ± 2.4 µM in test [3]; 22.4 ± 1.4 µM on Δ^1–24-C65A + P110A; 13.5 ± 3.1 µM at Δ^1–24-L-PGDS + P110A; 20.6 ± 2.3 µM in test [4].
Take `CCCCC[C@H](O)/C=C/[C@@H]1[C@@H](C/C=C\CCCC(=O)O)[C@H]2CO[C@@H]1C2` [U-46619]: the Kd in test [1] is 22.8 ± 1.6 µM; in test [3], 16.2 ± 1.4 µM; in test [4] it was 20.3 ± 1.3 µM; in test [5], 19.1 ± 2.6 µM; in test [6], 48.5 ± 4.4 µM.

Source of the values: paper PMC2755957 (The Journal of Biological Chemistry, 2009).
